Source: patent US10227369B2, “Short-chain fatty acid hexosamine analogs and their use in tissue engineering applications” (THE JOHNS HOPKINS UNIVERSITY, priority 2013, dated 2019)

Assays:
[1] = tested on: chondrogenic-induced MSCs; experiment: Chondrogenic-induced MSCs in 3D PEGDA hydrogels: biochemical analysis and histology; assay type: cell-based, goat; settings: 21 days
Description: (§1) Goat MSCs were isolated from 2- to 4-year-old goats (Thomas D. Morris, Inc., Reisterstown, Md.), as previously described. Briefly, bone marrow aspirates treated with 6,000 U/ml heparin were washed twice with PBS. Cells were plated at a density of 120,000 mononuclear cells/cm^2 and cultured in high glucose DMEM supplemented with 10% (v/v) FBS, 2 mM L-glutamine, 100 U/ml penicillin and 100 μg/ml streptomycin. The following day, tissue culture dishes were washed with PBS and medium was replaced. Medium changes were performed 3 times per week. Cells were passaged using 0.25% trypsin. They were used for experiments after passage four.
Photoencapsulation in Poly(Ethylene Glycol)-Diacrylate (PEGDA) Hydrogels and Construct Culturing. For all 3D culture experiments, cells were photoencapsulated in PEGDA hydrogels, as previously described. Briefly, 100 mg PEGDA (3.4 kDa, SunBio, Anyang City, South Korea) was dissolved in 1 ml sterile PBS. A photoinitiator solution of Irgacure® 2959 (CIBA Specialty Chemicals) was prepared by dissolving 100 mg of Irgacure® 2959 in 1 ml 70% ethanol. Five microliters of the Irgacure® 2959 solution was added to 1 ml of PEGDA solution. Cells were suspended in the hydrogel precursor solution at a density of 20 million cells/ml and polymerized in sterile molds. A high cell density was chosen as it has been shown. Based on our previous studies a high cell density was chosen to best to support a cell phenotype and differentiation and cell phenotype. Polymerization was carried out using UV light (365 nm, 3.2 mW/cm^2) exposure for 5 minutes. […]
(§2) Biochemical Analysis. The constructs (n=3 for chondrocyte experiments and n=4 for chondrogenic experiments) were lyophilized for 48 hours and the dry weights measured. […] Quantification of DNA content was carried out using a Hoescht Dye 33342 DNA assay. […] Quantification of sulfated glycosaminoglycans (sGAG), a molecule found in cartilage ECM, was carried out using a 1,9-dimethylmethylene blue (DMMB) dye assay; chondroitin sulfate was used to generate standard curves. Quantification of collagen was carried out via measuring hydroxyproline content after hydrolyzing in 6 N HCl overnight at 120° C. […]

Chondrocytes = experiment: WST-1 metabolic activity/toxicity screening of monolayer chondrocytes; assay type: cell-based, bovine; settings: 3 days exposure, 0-320 μM tested
Description: Cell Isolation and Culturing. Bovine chondrocytes were isolated from 4- to 8-week-old calves (Research 87, Inc., Boylston, Mass.), as previously described. Briefly, cartilage was dissected from the femoral patellar groove and condyles and minced into approximately 1 mm^2 pieces. Cells were isolated from the tissue by digesting overnight at 37° C. with 2 mg/ml type II collagenase (Worthington Biochemical Corp., Lakewood, N.J.), 5% fetal bovine serum (FBS), 100 U/ml penicillin and 100 μg/ml streptomycin on an orbital shaker. The cell suspension was passed through a 70 μm cell strainer, followed by centrifugation. Cells were washed 3 times using sterile phosphate buffered saline (PBS). […]
Metabolic Activity/Toxicity Screening: Water Soluble Tetrazonium-1 (WST-1) Assay. […] Absorbance of the wells was read using a microplate reader at a wavelength of 450 nm. The absorbance of the wells containing WST-1 reagent with no cells was subtracted from the absorbance readings. Data is presented as the background subtracted reading normalized to 0 μM wells from five independent experiments for each hexosamine analog.

[2] = tested on: chondrogenic-induced MSCs; experiment: Chondrogenic-induced MSCs in 3D PEGDA hydrogels: real-time PCR gene expression; assay type: cell-based, goat
Description: as §1
(§3) Photoencapsulation in Poly(Ethylene Glycol)-Diacrylate (PEGDA) Hydrogels and Construct Culturing. For all 3D culture experiments, cells were photoencapsulated in PEGDA hydrogels, as previously described. Briefly, 100 mg PEGDA (3.4 kDa, SunBio, Anyang City, South Korea) was dissolved in 1 ml sterile PBS. A photoinitiator solution of Irgacure® 2959 (CIBA Specialty Chemicals) was prepared by dissolving 100 mg of Irgacure® 2959 in 1 ml 70% ethanol. Five microliters of the Irgacure® 2959 solution was added to 1 ml of PEGDA solution. Cells were suspended in the hydrogel precursor solution at a density of 20 million cells/ml and polymerized in sterile molds. A high cell density was chosen as it has been shown. Based on our previous studies a high cell density was chosen to best to support a cell phenotype and differentiation and cell phenotype. Polymerization was carried out using UV light (365 nm, 3.2 mW/cm^2) exposure for 5 minutes.
For chondrogenesis experiments, the cell-laden hydrogels were cultured in chondrogenic induction medium (high glucose DMEM supplemented with 50 μg/ml ascorbic acid-2-phosphate, 40 μg/ml L-proline, 100 μg/ml sodium pyruvate, 1% ITS-premix (6.25 μg/ml insulin, 6.25 μg/ml transferrin, 6.25 ng/ml selenous acid, 1.25 mg/ml bovine serum albumin (BSA), 5.35 μg/ml linoleic acid (Collaborative Biomedical, BD Bioscience, Bedford, Mass.)) and 10 ng/ml TGF-β1 (Fitzgerald Industries International, Acton, Mass.) with specified concentrations of GalNAc-a or 100 nM dexamethasone (as a control). Constructs were cultured for 21 days with medium changes 3 times per week. For IL-1β stimulation, the cell-laden hydrogels were cultured for 3 days in chondrogenic induction medium supplemented with 10 ng/ml IL-1β. Constructs were cultured for an additional 21 days with chondrogenic induction medium supplemented with 10 ng/ml IL-1β and the specified concentration of GalNAc-a.
RNA Isolation and Real-Time PCR. Total RNA was extracted using TRIzol® reagent (Life Technologies, Grand Island, N.Y.) following the manufacturer's protocol. cDNA was synthesized using Superscript® II reverse transcriptase (Life Technologies, Grand Island, N.Y.) following the manufacturer's protocol. Real-time PCR was carried out using a StepOnePlus™ Real-Time PCR System (Life Technologies, Grand Island, N.Y.). mRNA amounts for bovine primers were calculated using the ΔΔCt method. Relative mRNA quantities for goat primers were calculated using the Pfaffl method.

[3] = tested on: chondrogenic-induced MSCs stimulated by IL-1β; experiment: IL-1β-stimulated chondrogenic-induced MSCs in 3D PEGDA hydrogels: biochemical analysis; assay type: cell-based, goat; settings: 10 ng/ml IL-1β, 21 days exposure
Description: as §1
Photoencapsulation in Poly(Ethylene Glycol)-Diacrylate (PEGDA) Hydrogels and Construct Culturing. […]
as §2

[4] = tested on: IL-1β-stimulated chondrocytes; experiment: IL-1β-stimulated chondrocytes in 3D PEGDA hydrogels: biochemical analysis (DNA, sGAG, collagen), histology, immunohistochemistry; assay type: cell-based, bovine; settings: 10 ng/ml IL-1β, 21 days
Description: Cell Isolation and Culturing. Bovine chondrocytes were isolated from 4- to 8-week-old calves (Research 87, Inc., Boylston, Mass.), as previously described. Briefly, cartilage was dissected from the femoral patellar groove and condyles and minced into approximately 1 mm^2 pieces. Cells were isolated from the tissue by digesting overnight at 37° C. with 2 mg/ml type II collagenase (Worthington Biochemical Corp., Lakewood, N.J.), 5% fetal bovine serum (FBS), 100 U/ml penicillin and 100 μg/ml streptomycin on an orbital shaker. The cell suspension was passed through a 70 μm cell strainer, followed by centrifugation. Cells were washed 3 times using sterile phosphate buffered saline (PBS). Chondrocyte medium was composed of high glucose Dulbecco's Modified Eagle's Medium (DMEM) supplemented with 10 mM HEPES, 0.4 mM L-proline, 50 μg/ml ascorbic acid, 10% (v/v) fetal bovine serum (FBS; Hyclone Laboratories, Inc., Logan, Utah), 0.1 mM non-essential amino acids, 100 U/ml penicillin and 100 μg/ml streptomycin.
as §3
For chondrocyte experiments, the cell-laden hydrogels were cultured in chondrocyte medium supplemented with 10 ng/ml IL-1β for 3 days. Following the initial 3 days, constructs were cultured with medium containing specific concentrations of hexosamine analog with 10 ng/ml IL-1β for an additional 21 days. The medium was changed 3 times per week.
Biochemical Analysis. The constructs (n=3 for chondrocyte experiments and n=4 for chondrogenic experiments) were lyophilized for 48 hours and the dry weights measured. Constructs were then homogenized in 125 μg/ml papainase (Worthington Biochemical Corp., Lakewood, N.J.) and digested for 16 hours at 60° C. Quantification of DNA content was carried out using a Hoescht Dye 33342 DNA assay. Calf thymus DNA was used to generate standard curves. Quantification of sulfated glycosaminoglycans (sGAG), a molecule found in cartilage ECM, was carried out using a 1,9-dimethylmethylene blue (DMMB) dye assay; chondroitin sulfate was used to generate standard curves. Quantification of collagen was carried out via measuring hydroxyproline content after hydrolyzing in 6 N HCl overnight at 120° C. The reaction of hydroxyproline with chloramine-T and p-dimethylaminobenzaldehyde was performed as a measure of total collagen content; hydroxyproline was used to generate standard curves.
Histology and Immunohistochemistry. Constructs were fixed in 10% formalin or 4% paraformaldehyde followed by dehydration in increasing concentrations of ethanol, embedded in paraffin and sliced into 5 μm sections. After paraffin removal and subsequent rehydration, sections were stained for proteoglycans using Safranin-O and fast green or prepared for immunohistochemistry. For immunohistochemical staining of type II collagen, endogenous peroxidase was quenched using 3% (v/v) hydrogen peroxide in methanol. Sections were then incubated at 37° C. with 2.5% (w/v) hyaluronidase and stained using a Histostain-SP Kit (AEC, Broad Spectrum) (Life Technologies, Grand Island, N.Y.) following the manufacturer's instructions. […]

[5] = both medium conditions, 21 days, dexamethasone 100 nM

## CCCC(=O)OC[C@H]1OC(O)[C@H](NC(C)=O)[C@@H](OC(=O)CCC)[C@H]1OC(=O)CCC (stereo partly drawn) [GalNAc-a, 3,4,6-O-Bu3GalNAc]
[1]
  chondrogenic differentiation of the MSCs: inhibits chondrogenic differentiation
[1]; ascorbic acid-containing medium, GalNAc-a varying concentrations, dexamethasone 100 nM
  total collagen accumulation normalized to DNA: dose-dependent decrease
[1]; both medium conditions (with/without ascorbic acid), GalNAc-a varying concentrations, dexamethasone 100 nM
  sGAG accumulation normalized to DNA: dose-dependent decrease
[1]; with or without ascorbic acid
  DNA content: did not change
Chondrocytes
  concentration from which reduced viability was observed: ≥ 160 µM
[2]; 50 μM to 150 μM, both medium conditions, 21 days
  SOX9 gene expression: decreased in a dose-dependent manner
[2]; 50 μM, ascorbic acid-containing medium, 21 days
  SOX9 gene expression: increased SOX9 expression
[2]; 50 μM, both medium conditions, 21 days
  type I collagen gene expression: initially increased
[2]; above 50 μM for GalNAc-a, dexamethasone 100 nM, both medium conditions
  type I collagen gene expression compared to no analog exposure: remained elevated
[2]; all analog concentrations, regardless of medium condition
  MMP13 gene expression: increased at all analog concentrations
[2]; [5]
  aggrecan gene expression: followed a similar trend as SOX9 expression
  type II collagen gene expression: decreased type II collagen expression
[3]
  DNA content: did not have an effect
  sGAG accumulation normalized to DNA: decreased sGAG accumulation
[4]; at 150 μM
  proteoglycan deposition (Safranin-O staining): further increase
  sGAG accumulation normalized to DNA: further increase
[4]; starting at 50 μM, comparison of the three analogs
  type II collagen deposition (immunohistochemistry): highest staining intensity
[4]; comparison of the three analogs
  cartilage-like tissue formation (sGAG content, proteoglycan and type II collagen staining): greatest cartilage-like tissue formation
